Measurements reported in ChEMBL document CHEMBL1201862, “PubChem BioAssay data set” (2004).
The source made the active and inactive calls.

Legend:
[1] = molecular target: Neuropeptides B/W receptor type 1 (Homo sapiens, UniProt P48145); test: Fluorescence-based dose response cell-based high throughput screening assay to identify antagonists of the G-protein coupled receptor 7 (GPR7). [Related pubchem assays: 1952 (Screening assay (GPR7 antagonists).), 1880 (Summary AID.)]; format: functional
[2] = molecular target: T1, Neuropeptide Y receptor type 2 (Homo sapiens, UniProt P49146); test: NPY-Y2 antagonist potency, selectivity check, dose response, counter-screen for NPY-Y1 antagonist project, cell-based (AID 1278); format: functional
T1 sequence (P49146 whole entry): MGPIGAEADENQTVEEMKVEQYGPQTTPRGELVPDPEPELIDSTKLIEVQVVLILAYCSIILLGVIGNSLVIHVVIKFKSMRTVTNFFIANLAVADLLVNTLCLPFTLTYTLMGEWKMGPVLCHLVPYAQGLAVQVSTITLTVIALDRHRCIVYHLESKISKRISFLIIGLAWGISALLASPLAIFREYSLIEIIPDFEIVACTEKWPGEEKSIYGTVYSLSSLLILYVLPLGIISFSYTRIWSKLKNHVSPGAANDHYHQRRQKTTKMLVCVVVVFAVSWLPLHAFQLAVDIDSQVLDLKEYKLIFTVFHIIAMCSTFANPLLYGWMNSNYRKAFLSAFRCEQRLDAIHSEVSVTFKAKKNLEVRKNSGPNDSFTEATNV

[3] = molecular target: Melanin-concentrating hormone receptor 1 (Homo sapiens, UniProt Q99705); test: Fluorescence-based counterscreen for antagonists of the G-protein coupled receptor 7 (GPR7): cell-based high throughput dose response assay to identify antagonists of the melanin-concentrating hormone receptor 1 (MCHR1).; format: functional
Chain of Melanin-concentrating hormone receptor 1 (Q99705 whole entry): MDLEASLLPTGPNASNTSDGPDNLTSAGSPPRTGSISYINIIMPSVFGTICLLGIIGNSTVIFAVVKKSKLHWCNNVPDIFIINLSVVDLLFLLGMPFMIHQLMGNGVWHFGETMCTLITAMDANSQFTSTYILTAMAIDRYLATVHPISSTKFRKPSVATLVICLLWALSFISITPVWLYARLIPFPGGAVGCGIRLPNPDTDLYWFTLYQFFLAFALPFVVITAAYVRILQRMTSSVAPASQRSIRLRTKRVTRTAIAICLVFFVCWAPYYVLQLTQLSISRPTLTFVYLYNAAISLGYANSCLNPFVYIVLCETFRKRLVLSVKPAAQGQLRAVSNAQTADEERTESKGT

[4] = molecular target: T2, Neuropeptide Y receptor type 1 (Homo sapiens, UniProt P25929); test: NPY-Y1 receptor antagonist potency, dose response, cell-based (AID 1277); format: functional
T2 sequence (P25929 whole entry): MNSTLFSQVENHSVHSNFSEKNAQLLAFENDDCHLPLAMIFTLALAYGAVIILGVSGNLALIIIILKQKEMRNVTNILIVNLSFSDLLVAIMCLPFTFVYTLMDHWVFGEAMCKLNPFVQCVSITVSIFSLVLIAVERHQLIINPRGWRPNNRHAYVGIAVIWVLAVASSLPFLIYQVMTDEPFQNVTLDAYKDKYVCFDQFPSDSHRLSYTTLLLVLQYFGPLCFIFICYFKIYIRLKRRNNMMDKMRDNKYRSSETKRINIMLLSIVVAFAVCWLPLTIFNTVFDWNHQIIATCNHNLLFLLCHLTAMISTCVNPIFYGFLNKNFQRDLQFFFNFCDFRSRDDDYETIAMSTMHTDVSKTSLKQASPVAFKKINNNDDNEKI

[5] = molecular target: Glyceraldehyde-3-phosphate dehydrogenase (Homo sapiens, UniProt P04406)
Chain of Glyceraldehyde-3-phosphate dehydrogenase (P04406 whole entry): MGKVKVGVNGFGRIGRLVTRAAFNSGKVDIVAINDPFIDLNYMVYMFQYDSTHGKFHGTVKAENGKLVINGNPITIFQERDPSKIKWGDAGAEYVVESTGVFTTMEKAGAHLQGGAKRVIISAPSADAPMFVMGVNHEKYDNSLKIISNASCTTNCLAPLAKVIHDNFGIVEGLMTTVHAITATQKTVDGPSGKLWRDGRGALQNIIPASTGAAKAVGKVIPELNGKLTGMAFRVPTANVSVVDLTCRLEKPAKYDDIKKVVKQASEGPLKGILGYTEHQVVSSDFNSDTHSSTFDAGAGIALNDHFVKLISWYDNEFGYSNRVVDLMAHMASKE

Bcl-2-related protein A1 [6] = molecular target: T3, Bcl-2-related protein A1 (Mus musculus, UniProt Q07440); test: Bfl-1 inhibitors blocking BH3 peptide binding, confirmation, biochemical, TR-FRET, mouse Bfl-1 (AID 621);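 further: TR-FRET binding of GST-Bfl-1 to FITC-labelled Bid peptide via terbium antibody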
T3 sequence (Q07440 whole entry): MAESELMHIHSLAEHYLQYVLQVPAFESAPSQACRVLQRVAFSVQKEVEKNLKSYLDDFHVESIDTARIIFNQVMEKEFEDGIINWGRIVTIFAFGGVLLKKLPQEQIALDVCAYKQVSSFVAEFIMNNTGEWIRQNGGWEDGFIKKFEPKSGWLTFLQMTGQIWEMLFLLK

Bcl-2-related protein A1 [7] = molecular target: T3, Bcl-2-related protein A1; test: Bfl-1 binding inhibitors, SAR follow-up, biochemical, fluorescence polarization (AID 1070)
[8] = molecular target: T4, Nucleotide-binding oligomerization domain-containing protein 1 (Homo sapiens, UniProt Q9Y239); test: SAR analysis of compounds that inhibit NOD1 - Set 3. [Related pubchem assays (depositor defined):AID1566, AID1575, AID1578, AID1849, AID1852, AID2333, AID2335, AID2466]; format: functional
T4 sequence (Q9Y239 whole entry): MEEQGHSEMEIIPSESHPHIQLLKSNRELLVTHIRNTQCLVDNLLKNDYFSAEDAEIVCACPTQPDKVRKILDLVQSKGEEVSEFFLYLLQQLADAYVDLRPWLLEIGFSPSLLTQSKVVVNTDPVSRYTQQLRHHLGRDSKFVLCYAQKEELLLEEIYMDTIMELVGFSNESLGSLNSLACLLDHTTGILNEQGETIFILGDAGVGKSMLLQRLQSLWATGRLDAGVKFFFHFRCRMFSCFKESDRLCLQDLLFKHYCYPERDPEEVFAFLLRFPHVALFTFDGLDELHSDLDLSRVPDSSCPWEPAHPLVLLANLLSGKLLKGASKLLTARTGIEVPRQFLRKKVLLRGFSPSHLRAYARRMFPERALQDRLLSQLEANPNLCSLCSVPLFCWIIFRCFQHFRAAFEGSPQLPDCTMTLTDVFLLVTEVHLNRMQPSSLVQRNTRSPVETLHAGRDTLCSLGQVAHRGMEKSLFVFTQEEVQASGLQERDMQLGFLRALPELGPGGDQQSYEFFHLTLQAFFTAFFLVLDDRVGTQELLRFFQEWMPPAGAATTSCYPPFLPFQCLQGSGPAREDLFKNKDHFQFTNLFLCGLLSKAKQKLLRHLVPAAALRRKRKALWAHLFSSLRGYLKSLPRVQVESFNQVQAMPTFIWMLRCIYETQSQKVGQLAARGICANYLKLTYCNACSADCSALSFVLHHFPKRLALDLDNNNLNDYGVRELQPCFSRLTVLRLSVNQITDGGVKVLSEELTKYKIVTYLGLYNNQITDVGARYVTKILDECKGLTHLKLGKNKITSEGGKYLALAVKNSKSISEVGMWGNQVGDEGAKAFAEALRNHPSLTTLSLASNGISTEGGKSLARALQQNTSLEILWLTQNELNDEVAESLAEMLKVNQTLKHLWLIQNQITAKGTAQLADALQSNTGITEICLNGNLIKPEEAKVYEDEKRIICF

Tumor necrosis factor = Tumor necrosis factor (Homo sapiens, UniProt P01375); test: TNFa-triggered NF-kB activation inhibitors, SAR follow-up, cell-based, set 3 (AID 2801); format: functional
Chain of Tumor necrosis factor (P01375 whole entry): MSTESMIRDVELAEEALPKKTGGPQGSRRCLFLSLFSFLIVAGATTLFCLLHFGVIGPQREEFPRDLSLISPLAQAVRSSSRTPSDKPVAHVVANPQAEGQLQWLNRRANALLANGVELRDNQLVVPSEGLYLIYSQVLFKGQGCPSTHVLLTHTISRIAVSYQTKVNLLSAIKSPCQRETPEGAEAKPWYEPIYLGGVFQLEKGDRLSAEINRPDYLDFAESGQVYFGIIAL

HEK293 = test: SAR analysis of compounds that are cytotoxic to HEK293 - Set 3. [Related pubchem assays (depositor defined):AID1575, AID1578, AID1848, AID1849, AID2001, AID2333, AID2334, AID2335, AID2337, AID2469]; format: functional, cell-based; conditions: Homo sapiens
[9] = molecular target: Nucleotide-binding oligomerization domain-containing protein 2 (Homo sapiens, UniProt Q9HC29); test: NOD2 signaling inhibitors, analog potency, SAR follow-up, cell-based, set 3 (AID 2799); format: functional
Chain of Nucleotide-binding oligomerization domain-containing protein 2 (Q9HC29 whole entry, the tested form may be a part): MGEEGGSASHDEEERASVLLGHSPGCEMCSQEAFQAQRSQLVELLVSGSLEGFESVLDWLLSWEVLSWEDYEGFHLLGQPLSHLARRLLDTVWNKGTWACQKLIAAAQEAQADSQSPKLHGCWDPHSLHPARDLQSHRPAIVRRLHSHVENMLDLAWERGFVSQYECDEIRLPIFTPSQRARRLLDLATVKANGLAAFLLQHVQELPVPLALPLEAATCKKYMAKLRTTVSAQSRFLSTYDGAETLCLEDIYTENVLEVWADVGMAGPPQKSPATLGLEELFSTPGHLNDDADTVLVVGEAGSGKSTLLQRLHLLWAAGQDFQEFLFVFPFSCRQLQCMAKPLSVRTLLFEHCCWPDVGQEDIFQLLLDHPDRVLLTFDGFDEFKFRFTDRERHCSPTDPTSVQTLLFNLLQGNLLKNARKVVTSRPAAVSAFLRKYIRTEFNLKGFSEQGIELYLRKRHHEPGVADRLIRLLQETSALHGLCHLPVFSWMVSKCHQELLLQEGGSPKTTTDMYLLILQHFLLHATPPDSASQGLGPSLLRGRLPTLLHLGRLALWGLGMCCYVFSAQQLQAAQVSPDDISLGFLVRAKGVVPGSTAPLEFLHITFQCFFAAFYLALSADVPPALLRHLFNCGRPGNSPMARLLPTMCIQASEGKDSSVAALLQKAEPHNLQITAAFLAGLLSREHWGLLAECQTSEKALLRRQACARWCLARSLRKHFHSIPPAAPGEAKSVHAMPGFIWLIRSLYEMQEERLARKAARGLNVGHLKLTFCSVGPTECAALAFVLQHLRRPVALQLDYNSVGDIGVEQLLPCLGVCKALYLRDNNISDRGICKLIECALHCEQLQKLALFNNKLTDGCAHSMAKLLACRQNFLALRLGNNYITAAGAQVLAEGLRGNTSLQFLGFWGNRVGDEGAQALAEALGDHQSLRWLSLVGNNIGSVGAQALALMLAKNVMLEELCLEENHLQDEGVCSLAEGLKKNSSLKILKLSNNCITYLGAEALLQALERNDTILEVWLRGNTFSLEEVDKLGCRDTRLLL

Vero [10] = test: cytotoxicity of synthesized analogs in Vero 76, SAR follow-up, cytotoxicity control for West Nile virus antiviral project, Vero 76 cells (AID 2414); format: functional; conditions: Chlorocebus sabaeus
Vero [11] = test: cytotoxicity of synthesized analogs in Vero cells, SAR follow-up, cytotoxicity control for West Nile virus antiviral project, cell-based, set II (AID 2402); format: functional; conditions: Chlorocebus sabaeus
[12] = A Cell Based Assay for the Identification of Probe candidate Compounds with Anti- Venezuelan Equine Encephalitis virus. [Related pubchem assays: 2409, 2419, 1621, 2238, 2405, 2024, 2065, 2402, 2414, 1635, 1650, 2244 ]; format: functional
NADPH oxidase 1 = NADPH oxidase 1 (Homo sapiens, UniProt Q9Y5S8); format: functional, cell-based;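 further: Cell-based assay with luminescence read-out, IC50 derived from inhibitor dose-response curves; intracellular ROS from endogenous NOX1 in intact HT29 colon cancer cells; potency of inhibitors that lower the ROS luminescence signal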
Chain of NADPH oxidase 1 (Q9Y5S8 whole entry): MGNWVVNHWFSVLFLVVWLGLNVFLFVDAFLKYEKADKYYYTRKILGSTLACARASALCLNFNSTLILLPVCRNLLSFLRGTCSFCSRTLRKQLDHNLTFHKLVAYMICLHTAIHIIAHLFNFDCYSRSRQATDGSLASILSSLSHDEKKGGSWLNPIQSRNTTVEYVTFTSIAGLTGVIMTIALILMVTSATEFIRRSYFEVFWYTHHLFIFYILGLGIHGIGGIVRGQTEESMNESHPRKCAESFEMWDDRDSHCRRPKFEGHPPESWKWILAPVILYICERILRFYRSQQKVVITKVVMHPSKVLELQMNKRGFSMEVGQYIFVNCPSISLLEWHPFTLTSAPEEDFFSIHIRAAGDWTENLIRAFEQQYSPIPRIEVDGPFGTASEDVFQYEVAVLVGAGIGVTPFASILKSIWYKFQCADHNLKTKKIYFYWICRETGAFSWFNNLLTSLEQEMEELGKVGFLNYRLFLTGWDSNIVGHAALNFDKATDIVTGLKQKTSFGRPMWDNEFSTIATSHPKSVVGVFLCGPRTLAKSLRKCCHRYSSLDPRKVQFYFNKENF

[13] = polyadenylation inhibitors in yeast reporter, dose response, luminescence, S. cerevisiae SKY197-pL101 (AID 2525); format: functional, cell-based
[14] = Luminescence Cell-Based Dose Confirmation HTS to Identify Inhibitors of Polyadenylation.; format: functional
[15] = molecular target: Protein-tyrosine kinase 2-beta (Homo sapiens, UniProt Q14289);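 further: potency of inhibitors of PYK2 kinase phosphorylation of poly-GT substrate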
Chain of Protein-tyrosine kinase 2-beta (Q14289 whole entry): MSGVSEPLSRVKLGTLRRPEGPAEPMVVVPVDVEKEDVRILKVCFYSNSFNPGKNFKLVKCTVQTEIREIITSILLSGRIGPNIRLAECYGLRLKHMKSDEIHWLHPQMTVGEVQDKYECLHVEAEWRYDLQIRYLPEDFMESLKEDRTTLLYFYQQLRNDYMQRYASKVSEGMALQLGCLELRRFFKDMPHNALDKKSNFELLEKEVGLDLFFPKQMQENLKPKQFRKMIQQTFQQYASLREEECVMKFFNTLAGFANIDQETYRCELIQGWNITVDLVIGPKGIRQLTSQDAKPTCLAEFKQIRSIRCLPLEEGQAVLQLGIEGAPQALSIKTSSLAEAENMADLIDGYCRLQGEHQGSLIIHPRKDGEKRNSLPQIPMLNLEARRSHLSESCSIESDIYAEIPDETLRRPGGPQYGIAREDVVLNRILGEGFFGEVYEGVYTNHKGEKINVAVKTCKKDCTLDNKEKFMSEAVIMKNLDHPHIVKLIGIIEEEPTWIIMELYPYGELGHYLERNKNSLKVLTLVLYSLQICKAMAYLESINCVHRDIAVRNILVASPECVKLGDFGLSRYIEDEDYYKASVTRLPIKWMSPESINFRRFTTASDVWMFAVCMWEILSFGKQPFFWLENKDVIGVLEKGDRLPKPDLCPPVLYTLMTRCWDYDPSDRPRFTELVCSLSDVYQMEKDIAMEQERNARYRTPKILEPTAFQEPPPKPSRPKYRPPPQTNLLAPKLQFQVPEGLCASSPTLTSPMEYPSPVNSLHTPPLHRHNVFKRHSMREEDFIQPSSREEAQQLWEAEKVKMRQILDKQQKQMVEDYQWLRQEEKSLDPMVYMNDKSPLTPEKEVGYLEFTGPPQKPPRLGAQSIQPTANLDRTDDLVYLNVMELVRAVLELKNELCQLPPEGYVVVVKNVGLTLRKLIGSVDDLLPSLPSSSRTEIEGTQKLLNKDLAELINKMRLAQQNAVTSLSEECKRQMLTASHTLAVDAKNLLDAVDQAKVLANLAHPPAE

Bcl-2-like protein 10 = molecular target: T5, Bcl-2-like protein 10 (Homo sapiens, UniProt Q9HD36); test: Biochemical TR3 FP assay of Bcl-B inhibitor potency, EC50 (AID 1243); format: functional
T5 sequence (Q9HD36 whole entry): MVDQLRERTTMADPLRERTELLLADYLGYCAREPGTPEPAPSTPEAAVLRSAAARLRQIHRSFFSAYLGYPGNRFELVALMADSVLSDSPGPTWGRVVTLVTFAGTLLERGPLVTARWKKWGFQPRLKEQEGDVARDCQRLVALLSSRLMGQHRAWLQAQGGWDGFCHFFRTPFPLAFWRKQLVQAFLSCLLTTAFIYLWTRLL

[16] = molecular target: Lysosomal acid glucosylceramidase (Homo sapiens, UniProt P04062); test: Dose response cell-based high throughput screening assay to identify enhancers of beta-glucosidase activity. [Related pubchem assays: 784 ]; format: functional
[17] = molecular target: Photoreceptor-specific nuclear receptor (Homo sapiens, UniProt Q9Y5X4); format: functional;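 further: potency for compounds that break the NR2E3 corepressor complex and count as activators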
Chain of Photoreceptor-specific nuclear receptor (Q9Y5X4 whole entry): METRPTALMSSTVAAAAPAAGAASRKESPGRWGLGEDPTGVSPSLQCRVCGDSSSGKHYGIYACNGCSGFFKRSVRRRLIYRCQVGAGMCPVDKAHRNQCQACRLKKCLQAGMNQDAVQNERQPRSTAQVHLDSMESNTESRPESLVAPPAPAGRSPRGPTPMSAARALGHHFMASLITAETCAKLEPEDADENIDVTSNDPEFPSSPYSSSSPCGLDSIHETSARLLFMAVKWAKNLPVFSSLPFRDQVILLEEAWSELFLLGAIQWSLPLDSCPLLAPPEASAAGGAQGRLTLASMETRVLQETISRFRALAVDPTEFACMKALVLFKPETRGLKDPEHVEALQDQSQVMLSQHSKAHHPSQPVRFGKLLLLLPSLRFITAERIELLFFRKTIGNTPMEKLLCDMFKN

[18] = molecular target: Peroxisome proliferator-activated receptor gamma/Nuclear receptor corepressor 2 (Homo sapiens, UniProt P37231+Q9Y618); format: functional
[19] = tested on: Streptococcus sp. 'group A'; test: growth inhibition of control SK(-) GAS strain, dose response, counter-screen for streptokinase expression inhibitor project, luminescence, kanamycin, BacTiterGlo, confirmation (AID 1900); format: functional, organism-based
cells [20] = format: functional, cell-based
[21] = Luminescence-based counterscreen assay for KLF5 inhibitors: dose response cell-based high throughput screening assay to identify cytotoxic compounds using the IEC-6 intestinal epithelial cell line. [Related pubchem assays: 1700 (Primary screen.), 1834 (Confirmation screen.), 1858 (Summary AID.), 1905 (Counterscreen.)]; format: functional
cells [22] = format: functional, cell-based; remark: listed apart in the source
Streptococcus = test: Group A Streptococcus viability loss, dose response, counter-screen for streptokinase expression inhibitor project, luminescence, BacTiterGlo (AID 1915); format: functional, organism-based;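 further: potency for reduction of bacterial viability or growth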
Nonstructural protein 1 = Nonstructural protein 1 (Influenza A virus, UniProt Q194T2); format: functional, Influenza A virus (A/California/07/2009(H1N1))
Chain of Nonstructural protein 1 (Q194T2 whole entry): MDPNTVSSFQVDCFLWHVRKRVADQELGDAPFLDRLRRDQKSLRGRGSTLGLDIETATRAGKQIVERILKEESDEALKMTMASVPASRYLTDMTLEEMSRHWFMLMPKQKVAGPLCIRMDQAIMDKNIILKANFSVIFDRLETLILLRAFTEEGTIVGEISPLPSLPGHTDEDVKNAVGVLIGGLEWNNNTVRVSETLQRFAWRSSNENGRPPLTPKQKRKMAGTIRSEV

[23] = molecular target: T6, Alkaline phosphatase, tissue-nonspecific isozyme (Homo sapiens, UniProt P05186)
T6 sequence (P05186 whole entry): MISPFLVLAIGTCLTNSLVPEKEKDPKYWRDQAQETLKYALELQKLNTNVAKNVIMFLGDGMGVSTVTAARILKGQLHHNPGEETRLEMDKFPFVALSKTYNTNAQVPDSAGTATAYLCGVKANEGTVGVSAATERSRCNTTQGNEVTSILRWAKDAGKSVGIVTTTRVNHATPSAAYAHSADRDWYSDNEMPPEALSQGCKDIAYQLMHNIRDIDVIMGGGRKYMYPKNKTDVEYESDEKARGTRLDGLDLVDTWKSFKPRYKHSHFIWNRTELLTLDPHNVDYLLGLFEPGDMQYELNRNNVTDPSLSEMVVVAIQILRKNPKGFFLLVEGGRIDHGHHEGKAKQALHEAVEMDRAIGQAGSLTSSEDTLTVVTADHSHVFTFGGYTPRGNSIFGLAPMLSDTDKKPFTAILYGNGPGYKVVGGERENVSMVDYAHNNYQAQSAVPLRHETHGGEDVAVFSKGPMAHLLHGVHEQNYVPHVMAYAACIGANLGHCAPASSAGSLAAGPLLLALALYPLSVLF

Chain of Neuropeptides B/W receptor type 1 (P48145 whole entry): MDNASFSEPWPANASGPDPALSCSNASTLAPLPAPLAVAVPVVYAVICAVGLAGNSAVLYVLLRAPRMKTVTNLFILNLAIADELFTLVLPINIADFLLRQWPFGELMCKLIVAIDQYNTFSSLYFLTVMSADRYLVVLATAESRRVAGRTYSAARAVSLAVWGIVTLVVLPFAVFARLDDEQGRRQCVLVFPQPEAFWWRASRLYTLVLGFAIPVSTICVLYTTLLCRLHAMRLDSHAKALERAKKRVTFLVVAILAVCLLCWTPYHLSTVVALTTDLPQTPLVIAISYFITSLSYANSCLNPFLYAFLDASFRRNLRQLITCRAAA

CC(NC(=O)Cn1c(NCCO)nc2ccccc21)C1CC2CCC1C2 (centres undefined)
IC50 [1]: > 14.6 µM (not active) | IC50 [2]: > 35 µM (not active) | IC50 [3]: > 43.8 µM (not active) | IC50 [4]: > 35 µM (not active)

Nc1cc(-c2ccc(Cl)cc2)nn1S(=O)(=O)c1c(F)c(F)c(F)c(F)c1F
IC50 [5]: > 100 µM (not active) | IC50 (Bcl-2-related protein A1 [6]): > 100 µM (not active) | IC50 (Bcl-2-related protein A1 [7]): > 100 µM (not active) | IC50 [8]: > 20 µM (inactive) | IC50 (Tumor necrosis factor): > 20 µM (inactive) | IC50 (HEK293): > 20 µM (inactive) | IC50 [9]: > 20 µM (inactive)

Cc1ccc2nc(SCC(=O)Nc3ccc4c(c3)CCC4)n(-c3ccccc3)c(=O)c2c1
CC50 (Vero [10]): 130 µM (active) | CC50 (Vero [11]): > 200 µM (active) | IC50 [12]: 7.73 µM (active)

c1ccc(-c2nc(-c3ccccn3)c(-c3ccccn3)[nH]2)cc1
IC50 (NADPH oxidase 1): > 17 µM (not active)

O=C(COC(=O)Cc1ccc(S(=O)(=O)N2CCOCC2)s1)NCc1ccc(Cl)cc1
EC50 [13]: > 500 µM (not active) | EC50 [14]: 99.6 µM (active)

O=C(O)c1ccccc1OCCOCCOc1ccccc1C(=O)O
IC50 [15]: 18.2 µM (not active)

O=C(COc1ccc(Cl)cc1Cl)Nc1nnc(-c2ccco2)s1
EC50 (Bcl-2-like protein 10): 17 µM (active)

NC(=NO)c1nc(N2CCCCC2)nc(N2CCCCC2)n1
EC50 [16]: > 50 µM (not active)

Cc1ccccc1CNc1ncnc2cc(Cl)ccc12
IC50 [17]: 3.84 µM (active) | IC50 [18]: 2.38 µM (active)

O=C(N/N=C/c1cc(O)ccc1Br)c1cccnc1
EC50 [19]: 1.85 µM (active) | EC50 (cells [20]): 165 µM (active) | IC50 [21]: 4.8 µM (active) | EC50 (cells [22]): > 350 µM (not active) | EC50 (Streptococcus): 4.86 µM (active) | IC50 (Nonstructural protein 1): 6.35 µM (active)

Cn1c(=O)c2c(nc(N/N=C/c3ccco3)n2C)n(C)c1=O
EC50 [23]: 88.9 µM (not active)
